EC50 and IC50 data for 38 compounds are collected here from ChEMBL document CHEMBL1201862, “PubChem BioAssay data set” (2004).

The structures appear in SMILES notation. The source made the active and inactive calls. Cut-off read from the data, not from the text of the source, for most assays here: actives have a measured EC50 and inactives only a lower limit.

Assay [1] is described as follows: viability of PTEN-deleted HCT116 cells – cell-based, HCT116 PTEN knockout, dose response (AID 1047).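 Note: HCT116 colon tumor cells with PTEN knocked out; cells exposed to compound for 60 hours before readout; potency for loss of cell viability measured by luminescence.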 The assay is classed as functional.
The nature of assay [2]: viability of HCT116 lacking mutant beta-catenin – cell-based, human colon tumor, dose response (AID 1045).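 Note: HCT116 colon tumor cells with beta catenin knocked out; cells exposed to compound for 60 hours.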 The assay is classed as functional.
Assay [3] concerns the target T1, Calpain-2 catalytic subunit (Sus scrofa, UniProt P43367).
T1 sequence (P43367 whole entry): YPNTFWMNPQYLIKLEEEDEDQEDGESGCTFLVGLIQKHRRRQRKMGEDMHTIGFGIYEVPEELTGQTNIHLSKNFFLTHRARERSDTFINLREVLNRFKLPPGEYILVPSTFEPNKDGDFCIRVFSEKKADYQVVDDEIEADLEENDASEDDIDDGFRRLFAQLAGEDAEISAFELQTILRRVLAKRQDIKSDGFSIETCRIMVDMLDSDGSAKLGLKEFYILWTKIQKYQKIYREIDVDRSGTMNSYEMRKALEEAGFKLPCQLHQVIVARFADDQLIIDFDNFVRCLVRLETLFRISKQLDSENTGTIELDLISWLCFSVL
In words: m-calpain protease blockers, concentration series – biochemical, fluorogenic peptide substrate, dose response (AID 1420). It counts as functional.

Assay [4] has as its target T2, Heat shock factor protein 1 (Mus musculus, UniProt P38532).
T2 sequence (P38532 whole entry): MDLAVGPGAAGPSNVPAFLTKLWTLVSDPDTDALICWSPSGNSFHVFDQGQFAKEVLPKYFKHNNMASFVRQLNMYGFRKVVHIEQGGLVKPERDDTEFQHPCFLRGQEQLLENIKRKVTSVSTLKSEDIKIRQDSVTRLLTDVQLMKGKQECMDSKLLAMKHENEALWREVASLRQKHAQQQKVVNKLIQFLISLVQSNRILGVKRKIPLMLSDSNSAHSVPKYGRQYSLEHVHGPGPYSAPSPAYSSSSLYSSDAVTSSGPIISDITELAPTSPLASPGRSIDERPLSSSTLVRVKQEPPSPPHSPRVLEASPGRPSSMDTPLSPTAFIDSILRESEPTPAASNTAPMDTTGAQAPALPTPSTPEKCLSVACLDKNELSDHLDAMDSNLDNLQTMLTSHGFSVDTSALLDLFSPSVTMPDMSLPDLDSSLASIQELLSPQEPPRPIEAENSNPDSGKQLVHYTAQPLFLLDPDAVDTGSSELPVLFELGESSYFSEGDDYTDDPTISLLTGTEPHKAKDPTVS
In words: decrease of HSF1-responsive luciferase luminescence – cell-based, NIH3T3, dose retest, confirmation (AID 2382).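 Note: NIH3T3 fibroblasts with HSF1-driven luciferase reporter stressed by proteasome inhibitor MG132; luminescence from HSF1-driven luciferase expression after 8 hours of MG132 stress.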 The assay is classed as functional.

Another assay addresses Large T antigen (Simian virus 40, UniProt P03070). It counts as functional, Betapolyomavirus macacae.
Assay [5] deals with T3, RNA-binding protein pos-1 (Caenorhabditis elegans, UniProt G5EF15).
T3 sequence (G5EF15 whole entry): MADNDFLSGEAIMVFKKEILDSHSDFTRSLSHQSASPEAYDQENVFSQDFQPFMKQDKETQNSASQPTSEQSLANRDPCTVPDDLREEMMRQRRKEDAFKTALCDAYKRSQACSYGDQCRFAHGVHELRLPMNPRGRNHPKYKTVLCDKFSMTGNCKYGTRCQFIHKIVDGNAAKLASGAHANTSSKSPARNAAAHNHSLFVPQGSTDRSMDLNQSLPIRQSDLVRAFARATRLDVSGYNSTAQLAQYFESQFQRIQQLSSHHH
Description: disruptors of C. elegans POS-1 RNA interaction – biochemical, fluorescence polarization, dose response (AID 1964).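 Note: purified POS-1 fused to maltose binding protein made in E. coli; potency of compounds blocking POS-1 binding to fluorescent RNA.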

In assay [6] the target is T4, Zinc finger protein mex-5 (Caenorhabditis elegans, UniProt Q9XUB2).
T4 sequence (Q9XUB2 whole entry): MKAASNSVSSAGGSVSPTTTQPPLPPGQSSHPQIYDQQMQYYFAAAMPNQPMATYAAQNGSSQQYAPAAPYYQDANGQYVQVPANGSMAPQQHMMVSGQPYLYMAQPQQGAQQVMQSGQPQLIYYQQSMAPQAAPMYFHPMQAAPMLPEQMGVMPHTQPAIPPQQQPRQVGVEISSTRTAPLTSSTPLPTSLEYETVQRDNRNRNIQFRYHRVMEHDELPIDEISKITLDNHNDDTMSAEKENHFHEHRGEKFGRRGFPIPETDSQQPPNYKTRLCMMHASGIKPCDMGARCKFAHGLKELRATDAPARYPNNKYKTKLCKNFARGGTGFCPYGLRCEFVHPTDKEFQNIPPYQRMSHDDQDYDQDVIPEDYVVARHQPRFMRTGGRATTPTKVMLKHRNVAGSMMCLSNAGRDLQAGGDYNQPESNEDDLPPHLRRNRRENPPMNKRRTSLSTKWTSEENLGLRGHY
In words: potency of MEX-5 RNA-binding blockers – biochemical, C. elegans, fluorescence polarization, dose response (AID 1960). In general terms: In fluorescence polarisation assays a small probe gives low polarisation when free and higher when bound to something large.

Assay [7] is described as follows: Trypanosoma cruzi growth suppression in host cells – NIH3T3 host cells, beta-gal luminescence, confirmation (AID 2044).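 Note: intracellular parasites grown in NIH/3T3 mouse fibroblasts as host cells; luminescent beta-galactosidase reporter signal from transgenic T. cruzi replicating inside host cells; inhibitors lower the luminescence signal.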 The assay is classed as functional, cell-based.
A short description of assay [8]: NIH3T3 cell viability loss – ATP luminescence, mouse fibroblasts, counter-screen, dose response (AID 2010).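 Note: cells exposed to compound for about 90 hours before reading.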 The assay is classed as functional, cell-based.
Another assay relates to H4. Description: Luminescence Cell-Based Dose Response HTS to Identify Activators of 5'UTR Stem-Loop Driven Prion Protein mRNA Translation in H4 Neuroglioblastoma Cells. [Related pubchem assays: 1829 (Project Summary), 1814 (Primary HTS)]. The assay is classed as functional. The conditions noted are these: Homo sapiens.
Another assay deals with H9c2. In words: cells. Conditions: Rattus norvegicus, H9c2, Myocardium. It counts as functional, cell-based.
A short description of the next assay: cells. The assay is classed as functional.
The subject of assay [9] is BJ. In words: BJ-TERT fibroblast viability loss – cell-based, RAS-independent, luminescence, dose response (AID 1933). It counts as functional. The conditions noted are these: Homo sapiens.
The subject of assay [10] is BJ. In words: cells. It counts as functional, cell-based. The conditions noted are these: Homo sapiens.
In assay [11] the test system is BJ. In words: BJ-TERT-LT-ST fibroblast viability loss – cell-based, RAS-independent, luminescence, dose response (AID 1935).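 Note: BJ fibroblasts immortalized with TERT plus LT and ST oncogenes.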 Conditions: Homo sapiens. It counts as functional.
Assay [12] is described as follows: DRD fibroblast viability loss – cell-based, non-viral oncogenic, luminescence, dose response (AID 1934). It counts as functional. Conditions: Homo sapiens.
Assay [13] in a line: Luminescence Cell-Based Dose Response HTS to Identify Activators of Luciferase Translation or Activity in H4 […] Cells. [Related pubchem assays: 1829 (Project Summary), 1814 (Primary HTS)]. It counts as functional.

Sequence of Large T antigen (P03070 whole entry): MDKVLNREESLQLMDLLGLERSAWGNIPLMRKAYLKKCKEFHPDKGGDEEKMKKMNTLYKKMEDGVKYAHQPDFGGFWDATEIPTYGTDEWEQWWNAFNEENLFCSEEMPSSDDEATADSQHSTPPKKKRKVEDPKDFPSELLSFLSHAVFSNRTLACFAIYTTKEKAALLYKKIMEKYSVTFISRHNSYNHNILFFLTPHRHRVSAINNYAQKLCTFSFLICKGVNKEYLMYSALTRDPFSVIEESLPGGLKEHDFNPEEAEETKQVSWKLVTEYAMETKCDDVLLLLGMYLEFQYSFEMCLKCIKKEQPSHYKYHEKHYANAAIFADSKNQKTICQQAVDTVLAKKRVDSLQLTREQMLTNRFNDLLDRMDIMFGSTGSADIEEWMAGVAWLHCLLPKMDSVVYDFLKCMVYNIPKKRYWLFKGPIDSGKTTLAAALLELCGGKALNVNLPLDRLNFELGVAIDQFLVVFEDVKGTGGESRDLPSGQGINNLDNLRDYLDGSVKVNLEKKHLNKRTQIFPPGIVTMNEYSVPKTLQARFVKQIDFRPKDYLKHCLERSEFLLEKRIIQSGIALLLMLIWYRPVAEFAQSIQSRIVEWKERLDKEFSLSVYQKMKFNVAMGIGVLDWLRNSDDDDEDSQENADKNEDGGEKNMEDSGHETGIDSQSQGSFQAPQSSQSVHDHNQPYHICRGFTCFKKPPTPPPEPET

On to `CCOC(=O)c1cccc(-n2c(-c3ccc(OC)cc3)nc3nc4ccccc4nc32)c1`, for which the 50% effective concentration (EC50) (commonly the concentration that produces a half-maximal response) in assay [1] is 15.3 µM (active); in assay [2], 13.5 µM (active). Take `C[C@H](NS(=O)(=O)c1ccc(Cl)cc1)C(=O)OCC(=O)NC(=O)Nc1ccc2c(c1)OCCO2`: the concentration for half-maximal inhibition (IC50) (commonly the concentration needed to halve the response being measured) in assay [3] is given as 14.2 µM (not active). As to `O=C(OCCCN1CCOCC1)c1ccc(O)c(O)c1`, the EC50 in [4] is 34.7 µM (active). In addition, the IC50 at Large T antigen is 11.7 µM (active). As to `CCOC(=O)C1Nc2ccc(C(F)(F)F)cc2C2C=CCC12` (stereo not given), the EC50 in assay [5] and in assay [6] was > 300 µM (not active) throughout. As for `CC(C)Cn1c(N)c(C(=O)CSc2ncnc3sc4c(c23)CCCC4)c(=O)n(C)c1=O`, the EC50 in assay [1] is 12.1 µM (active); in assay [2], 12.2 µM (active).

In the case of `COc1ccc(N2C3=C(CC4=C2CC(C)(C)CC4=O)C(=O)CC(C)(C)C3)cc1`, the EC50 in assay [7] is 0.484 µM (active); in [1], 9.52 µM (active); in assay [8], 9.07 µM (active); in [2], 8.4 µM (active).

As to `O=C(N[C@@H](Cc1ccccc1)C(=O)OCc1ccccc1)c1[nH]cnc1C(=O)N1CCN(c2ccccc2)CC1`, the IC50 in assay [3] was 6.6 µM (not active). With `Nc1nc(NC(=O)c2cccs2)nn1-c1ccccc1`, the EC50 with H4 is given as > 120 µM (not active).

As to `Cc1cc(O)nc2ccc(S(=O)(=O)Nc3ccc(O)cc3)cc12`, at Large T antigen, the concentration for half-maximal inhibition (IC50) was 7.49 µM (active). In the case of `CCCc1cc(O)nc(Nc2ccc(O)cc2)n1`, the IC50 on Large T antigen was 6.91 µM (active). For the compound `CN(C(=O)CCc1nc(O)c2ccccc2n1)C1CCS(=O)(=O)C1` (stereo not given), the IC50 in the assay on H9c2 was > 79 µM (inactive). Take `N=C(NOC(=O)CCCCCN1C(=O)c2ccccc2C1=O)c1ccccc1`: the IC50 in assay [3] is reported as 48.1 µM (not active). For `CC(C)(C)c1ccc(OCCOc2ccc(C(C)(C)C)cc2NC=O)c(NC=O)c1`, the EC50 in [7] is 2.47 µM (active); in assay [8] it was > 60 µM (not active). Moreover, in assay [3], the IC50 was 16.6 µM (not active).

Consider `O=C(CN1CCN(c2ccc(O)cc2)CC1)Nc1ccc2c(c1)OCCO2`, for which the IC50 on Large T antigen was 8.22 µM (active).

For `Cc1c(-c2ccc(Br)cc2)nc2ccccn12`, the IC50 in “cells” was 49.4 µM (active). Take `N#CC1=C(N)C(C#N)(C#N)C(c2cccnc2)C2COCC=C12` (stereo not given): the EC50 in assay [5] and in assay [6] was > 300 µM (not active) throughout. In the case of `c1ccc(-c2nc(-c3ccccn3)nc(-c3ccccn3)n2)nc1`, the EC50 in assay [5] was 31.1 µM (active); in [6] it was 54.6 µM (active). For `CCOC(=O)C1CCN(S(=O)(=O)c2cc(Br)cc3c2N(C(=O)C2CC2)CC3)CC1`, the half-maximal inhibitory concentration (IC50) in assay [3] is 11.5 µM (not active). Take `COc1ccccc1OCCNC(=O)c1cc([N+](=O)[O-])cc([N+](=O)[O-])c1`: the EC50 in [7] is 0.107 µM (active); in assay [8], > 60 µM (not active). Also, the 50% inhibitory concentration (IC50) in the assay “cells” is 47.6 µM (active). Regarding `O=C(Nc1ccc(N2CCCC2)cc1)c1cc(Cl)ccc1Cl`, the EC50 is 13.6 µM (active) in the assay on BJ [9], > 150 µM (not active) in the assay with BJ [10], 146 µM (active) in the assay with BJ [11] and 15.8 µM (active) in assay [12]. Take `Nc1ccc(-c2nnc(O)c3ccccc23)cc1N`: the IC50 in the assay on H9c2 is > 79 µM (inactive). For `O=C1NC(=O)[C@@H]2C3c4ccccc4C=CN3[C@H](C(=O)c3cccs3)[C@H]12` (stereo not given in full), the values for the EC50 in [5] and in assay [6] were 24.6 µM (inconclusive) and 16.4 µM (active), respectively. As to `O=S(=O)(c1ccccc1)N1CCN(c2nc(-c3cccnc3)nc3ccccc23)CC1`, the IC50 with H9c2 was 10.2 µM (active). On to `CC(=O)c1ccc(NC(=O)CSc2nnc(-c3ccncc3)o2)cc1`, for which the half-maximal effective concentration (EC50) in assay [5] and in [6] was > 300 µM (not active) throughout.

In the case of `CN1C(=O)C(=CNCCCCCCCCCCC(=O)O)C(=O)N(C)C1=O`, the concentration for a half-maximal effect (EC50) in assay [5] and in [6] was > 300 µM (not active) each time.

For the compound `Brc1ccc(-c2csc(NC3=NCCCCC3)n2)cc1`, the concentration giving a half-maximal response (EC50) in assay [13] was 18.9 µM (active); with H4 it was 36.6 µM (active).

Regarding `CS(=O)(=O)N(CC(O)Cn1c2ccccc2c2ccccc21)c1cccc2ccccc12` (stereo not given), the figures for the EC50 in assay [1] and in [2] were 16 µM (active) and 18.1 µM (active), respectively. For the compound `COc1ccccc1NS(=O)(=O)c1ccc2oc(SCC(=O)N3CCNC3=O)nc2c1`, in the assay on H9c2, the IC50 was 15.8 µM (active).

As to `CCOc1ccc(Cl)cc1S(=O)(=O)N1CCN(c2ccc(F)cc2)CC1`, the 50% inhibitory concentration (IC50) in assay [3] is given as 7.1 µM (not active). In the case of `COc1cc2c(cc1OC)C[N+](C)(C)CC2`, on Large T antigen, the IC50 is 55.1 µM (active). As to `Cc1[nH]c2ccc(-c3nnc(SCC(=O)c4ccc(F)cc4)o3)cc2c1C`, the EC50 in assay [4] is > 195 µM (not active); in [1], 33.4 µM (active); in [2] it was 31.2 µM (active). For `COc1ccc(NC(=O)c2c(Cl)n(C)c3ccccc23)cc1`, the EC50 in the assay on BJ [9] is 22.7 µM (active); in the assay with BJ [10] it was 23 µM (active); with BJ [11], > 150 µM (inconclusive); in assay [12], 25.3 µM (active). Regarding `Nc1ncccc1OCc1ccc(Br)cc1`, the half-maximal effective concentration (EC50) is 1.05 µM (active) in assay [13] and > 120 µM (not active) with H4. Consider `CCOC(=O)COc1cc(N)c(Cl)cc1Cl`, for which the half-maximal inhibitory concentration (IC50) in the assay “cells” is 7.65 µM (active). For the compound `C[C@@H]1ON(C)[C@H]2C[C@H]3c4[nH]c5ccc(-c6ccc7c(c6)OCO7)cc5c4CCN3C[C@@H]12`, the IC50 in the assay on H9c2 is > 79 µM (inactive).

`COc1ccccc1-c1cc(C(=O)N/N=C/C=C/c2ccccc2[N+](=O)[O-])c2ccccc2n1`: the IC50 in the assay with H9c2 is > 79 µM (inactive). As to `COc1ccc(/C=N/NC(=O)c2ccc(Br)cc2)cc1CN1CCOCC1`, the IC50 on Large T antigen is 15.8 µM (active). In the case of `O/N=C(\c1ccc(Cl)cc1)c1cc2ccccc2o1`, the half-inhibitory concentration (IC50) in assay [3] was 2.06 µM (not active).
